Results on one compound are retold here after US20210284691A1, “CBX8 CHROMDOMAIN INHIBITORS AND THE USES THEREOF” (Purdue Research Foundation, priority 2019, published 2021).

Square brackets hold non-standard residues; d marks the D form. Peptide text beside a SMILES is read from it. * marks the point of attachment. Tyr(3-Cl) = N[C@@H](Cc1ccc(O)c(Cl)c1)C(=O)O; Benzoyl(3,5-Cl2) = O=C(c1cc(Cl)cc(Cl)c1)*; Lys(Et2) = CCN(CC)CCCC[C@H](N)C(=O)O; Gly(cPent) = N[C@H](C(=O)O)C1CCCC1; NH(propargyl) = C#CCN*

Test [1] addresses T1, CBX8 binding to chromatin (Homo sapiens, UniProt Q9HC52).
T1 construct: endogenous in cells; host or cells: Hs68 fibroblasts (A16); HEK293T (A19); K562 (A23)
T1 sequence (Q9HC52 1-389): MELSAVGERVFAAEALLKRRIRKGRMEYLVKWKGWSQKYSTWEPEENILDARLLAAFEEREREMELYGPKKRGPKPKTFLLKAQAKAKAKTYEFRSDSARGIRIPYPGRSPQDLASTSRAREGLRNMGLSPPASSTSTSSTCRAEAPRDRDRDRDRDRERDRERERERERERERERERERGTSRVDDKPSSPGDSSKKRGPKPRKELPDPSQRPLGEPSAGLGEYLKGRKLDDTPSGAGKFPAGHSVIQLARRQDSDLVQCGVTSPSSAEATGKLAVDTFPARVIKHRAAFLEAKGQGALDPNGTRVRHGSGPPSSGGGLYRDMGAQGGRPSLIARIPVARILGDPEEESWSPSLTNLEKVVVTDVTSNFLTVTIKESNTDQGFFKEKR
The test is described as follows: ChIP-qPCR in Hs68 fibroblast cells. Type of test: cell-based. Conditions: 100 μM, 4 h. As to the method: ChIP: Hs68 cells were seeded at 4×10^6 in a 10 cm cell culture plates 16 hours prior to treatment. […] ChIP was performed as described in Connelly et al., 2018. Birefly, cells were washed with PBS and fixed on the plate with CiA Fix buffer (50 mM HEPES, pH 8.0, 1 mM EDTA, 0.5 mM ETGA, 100 mM NaCl) and 1% formaldehyde for 10 min at room temperature. Crosslinking was quenched with 0.125 M glycine for 5 min at 4° C. Cells were washed once with PBS and lifted off the plate then resuspended in CiA NP Rinse buffer 1 (50 mM HEPES pH 8.0, 140 mM NaCl, 1 mM EDTA, 10% glycerol, 0.5% NP-40, 0.25% Triton X) for 10 min. Cells were pelleted at 1200×g for 5 min at 4° C. The supernatant was removed, and the cells were resuspended in CiA NP rinse buffer 2 (10 mM Tris pH 8.0, 1 mM EDTA, 0.5 mM EGTA, 200 mM NaCl). Cells were collected by centrifugation, 1200×g for 5 min. Supernatant was removed and the cells were washed twice with shearing buffer (0.1% SDS, 1 mM EDTA, 10 mM Tris HCl, pH 8.0). Cells were resuspended in shearing buffer and sonicated for 7 min with the probe (Branson). Lysate was centrifuged at 21,000×g for 15 min to remove debris. Supernatant was collected and pre-cleared overnight with Protein A/G magnetic beads (Pierce). […]
qPCR: qPCR was performed on the isolated ChIP DNA using SYBR master mix (Thermo) and run on the BioRad CFX thermo cycler. […] Enrichment was determined by percent input. […]
(In general: Real-time PCR tracks product formation cycle by cycle.)

For test [2], the target named is T2, CBX2 bulk chromatin binding (Homo sapiens, UniProt Q14781).
T2 construct: endogenous in cells; host or cells: HEK293T (A21); K562 (A22)
The test is described as follows: Sequential salt extraction (SSE) in HEK293T cells. Type of test: cell-based. Conditions: 10 μM.

T2 sequence (Q14781 whole entry): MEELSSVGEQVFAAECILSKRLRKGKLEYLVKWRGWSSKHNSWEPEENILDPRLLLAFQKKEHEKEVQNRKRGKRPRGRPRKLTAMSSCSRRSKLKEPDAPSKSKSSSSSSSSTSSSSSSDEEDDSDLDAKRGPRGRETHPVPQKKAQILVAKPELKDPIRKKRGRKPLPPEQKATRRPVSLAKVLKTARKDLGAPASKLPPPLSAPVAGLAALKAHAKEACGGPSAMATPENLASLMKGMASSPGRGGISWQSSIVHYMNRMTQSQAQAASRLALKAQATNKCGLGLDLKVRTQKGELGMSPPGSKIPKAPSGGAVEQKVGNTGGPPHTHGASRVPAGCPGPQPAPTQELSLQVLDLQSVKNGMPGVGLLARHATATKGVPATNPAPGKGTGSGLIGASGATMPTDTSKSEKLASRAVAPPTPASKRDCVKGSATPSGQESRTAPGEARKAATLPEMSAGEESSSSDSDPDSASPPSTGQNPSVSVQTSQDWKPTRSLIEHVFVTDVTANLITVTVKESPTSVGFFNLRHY

For the compound `C#CCNC(=O)[C@H](CO)NC(=O)[C@H](CCCCN(CC)CC)NC(=O)[C@@H](NC(=O)[C@@H](NC(=O)[C@H](Cc1ccc(O)c(Cl)c1)NC(=O)c1cc(Cl)cc(Cl)c1)C1CCCC1)[C@@H](C)CC` [SW2_152F] ({Benzoyl(3,5-Cl2)}-[Tyr(3-Cl)][Gly(cPent)]I[Lys(Et2)]S-{NH(propargyl)}), the “CBX8 binding at target loci, ChIP-qPCR” value in test [1] is listed as “significant reduction of CBX8 binding”. Besides, the “CBX2 binding to chromatin, SSE” value in test [2] was “dramatically abrogated CBX2 binding to chromatin”.
